Measurements published in patent US20030064941A1, “Avermectin and praziquantel combination therapy” (priority 2001, published 2003).
Values after ≈ are worked out from the molar mass of the structure shown. Values joined by “and” are separate entries in the source; they are usually repeats but may differ in a detail not shown here. Identical values can stand only once. Like-named read-outs stand apart in the source and are kept apart here.

What was measured:
[1] = test system: Dipylidium spp; assay: Topical co-formulation efficacy against natural tapeworm infections in cats (post mortem counts); assay type: in vivo; details: single topical dose, 30 days after treatment
Description: (§1) […] Cats harbouring natural tapeworm infections were used, and randomized to treatment based on pre-trial infections. Animals were killed 30 days after treatment, and post mortem tapeworm counts were conducted.

[2] = test system: Taenia spp; assay: as above; assay type: in vivo; details: Trial "B", single topical dose, 30 days after treatment
Description: as §1

[3] = test system: Taenia taeniaeformis; details: cats, experimental immature infections; cited from earlier work
[4] = physchem; details: 30 °C, organic solvent or mixture, thermodynamic from solid, solubility (based on mean values)
Description: (§2) To achieve this a series of solutions of varying IPA/DPGMME ratio were prepared. To help minimize any solubility issues, which could arise due to the presence of selamectin in a formulation, a constant amount of selamectin was added to each solution. After achieving saturated solubility in these solutions and following filtration to remove excess undissolved praziquantel, the level of praziquantel (and selamectin) in solution was determined by HPLC.
(§3) A series of IPA/DPGMME mixtures were prepared in duplicate as outlined in Table 1. To these were added a fixed amount of selamectin to provide a constant concentration of 120 mg per ml, i.e., the maximum selamectin concentration found in Stronghold™. After preparation these solutions were placed at 30° C. and rolled continuously for 48 hours.
(§4) Praziquantel was analysed using an gradient HPLC method modified from that developed for selamectin. […] This same method was also used to check on the selamectin content in these same solutions.
(§5) The solubility of praziquantel and selamectin in the IPA/DPGMME solutions was calculated as both mg per g and mg per ml. The mass of a 1 ml solution taken for analysis was also measured so that an approximate density could be calculated.

[5] = cats, 3× dosage levels (oral, subcutaneous, intramuscular) during reproduction; cited from earlier work
[6] = for Concentration (mg per g) / Concentration (mg per ml): selamectin added at 120 mg per ml, 30° C.
Description: as §2, §3, §4, §5

[7] = Trial "A", selamectin 8 mg/kg and/or praziquantel 1 mg/kg
[8] = Trial "B", praziquantel 0.5 mg/kg, alone or with selamectin 8 mg/kg
[9] = Trial "B", selamectin 8 mg/kg and/or praziquantel 1 mg/kg
[10] = praziquantel 0.5 mg/kg, alone or with selamectin 8 mg/kg
[11] = selamectin 8 mg/kg and/or praziquantel 1 mg/kg
[12] = solution 2A: IPA 75 / DPGMME 25 % V/V
[13] = solutions 1A/1B: IPA 100 / DPGMME 0 % V/V
[14] = solutions 3A/3B: IPA 50 / DPGMME 50 % V/V
[15] = solutions 4A/4B: IPA 25 / DPGMME 75 % V/V
[16] = solutions 5A/5B: IPA 0 / DPGMME 100 % V/V

For `O=C(C1CCCCC1)N1CC(=O)N2CCc3ccccc3C2C1` (stereo not shown) [Praziquantel, 2-(cyclohexylcarbonyl)-1,2,3,6,7-11b-hexahydro-4H-pyraz-ino[2,1-a]isoquinolin-4-one], the “% Efficacy (Dipylidium)” value [1, 7] was 74%, the “Mean Dipylidium post mortem count (n = 4 / gp)” value [1, 7] was 3.25 and the “% Efficacy (Dipylidium)” value [1, 8] was 16%. The “Mean Dipylidium post mortem count (n = 5 / gp)” value [1, 8] was 7.6, the “% Efficacy (Dipylidium)” value [1, 9] was 89% and the “Mean Dipylidium post mortem count (n = 5 / gp)” value [1, 9] was 1. For the same compound, the “% Efficacy (Taenia)” value [2, 10] was 100%, the “Mean Taenia post mortem count (n = 5 / gp)” value [2, 10] was 0 and the “% Efficacy (Taenia)” value [2, 11] was 72%. The “Mean Taenia post mortem count (n = 5 / gp)” value [2, 11] was 1.2, the “elimination of experimental T. taeniaeformis infections as young as seven (7) days” value [3] was 100% and the solubility at 48 h [4] was 67 mg/mL (≈ 214 mM). The “effects on fertility, conception, fetal development or pregnancy” value [5] was “lack of effects on fertility, conception, fetal development or pregnancy”.
With `CO[C@H]1C[C@H](O[C@@H]2/C(C)=C/C[C@@H]3C[C@@H](C[C@]4(CC[C@H](C)[C@@H](C5CCCCC5)O4)O3)OC(=O)[C@@H]3C=C(C)/C(=N/O)[C@H]4OC/C(=C\C=C\[C@@H]2C)[C@]43O)O[C@@H](C)[C@@H]1O` [Selamectin, 5-oximino-22,23-dihydro-25-cyclohexylayermectin B1] the “% Efficacy (Dipylidium)” value [1, 7] was 40%, the “Mean Dipylidium post mortem count (n = 4 / gp)” value [1, 7] was 7.2 and the “Mean Dipylidium post mortem count (n = 5 / gp)” value [1, 9] was “No infection”. For the same compound, the “Mean Taenia post mortem count (n = 5 / gp)” value [2, 11] was “No infection”, the “solubility as the IPA concentration reduces” value ([6]; IPA/DPGMME solutions, all ratios) was no less than 100 mg/g and the “Concentration (mg per g)” value [6, 12] was 118 mg per g. For the same compound, the “Concentration (mg per ml)” value [6, 12] was 103 mg per ml, the “Concentration (mg per g)” value [6, 13] was 123 mg per g and the “Concentration (mg per ml)” value [6, 13] was 103 mg per ml. For the same compound, the “Concentration (mg per g)” value [6, 14] was 113 mg per g, the “Concentration (mg per ml)” value [6, 14] was 103 mg per ml and the “Concentration (mg per g)” value [6, 15] was 113 mg per g and 108 mg per g. The “Concentration (mg per ml)” value [6, 15] was 107 mg per ml and 103 mg per ml, the “Concentration (mg per g)” value [6, 16] was 104 mg per g and 103 mg per g and the “Concentration (mg per ml)” value [6, 16] was 103 mg per ml and 102 mg per ml.
